Data on four molecules can be found in ChEMBL document CHEMBL1201862, “PubChem BioAssay data set” (2004).

Calls of active or inactive are those of the source.

Assay [1] concerns the target Lysosomal acid glucosylceramidase (Homo sapiens, UniProt P04062). The assay is described as follows: Dose response cell-based high throughput screening assay to identify enhancers of beta-glucosidase activity. [Related pubchem assays: 784 ]. It is filed as functional.
Another assay relates to HEK293. The assay is described as follows: Fluorescence-based counterscreen for potentiators or agonists of NPY-Y1: cell-based high-throughput dose response assay for inhibitors of cyclic nucleotide gated ion channel (CNGC) activity. In this assay, the parental HEK293 cell line transfected with a cyclic-nucleotide gated ion channel (CNGC)-based cAMP sensor is used to measure inhibition of isoproterenol-induced CNGC …. The class given is functional. Particulars: Homo sapiens.

Assay [2] concerns the target T1, Neuropeptide Y receptor type 1 (Homo sapiens, UniProt P25929).
T1 sequence (P25929 whole entry): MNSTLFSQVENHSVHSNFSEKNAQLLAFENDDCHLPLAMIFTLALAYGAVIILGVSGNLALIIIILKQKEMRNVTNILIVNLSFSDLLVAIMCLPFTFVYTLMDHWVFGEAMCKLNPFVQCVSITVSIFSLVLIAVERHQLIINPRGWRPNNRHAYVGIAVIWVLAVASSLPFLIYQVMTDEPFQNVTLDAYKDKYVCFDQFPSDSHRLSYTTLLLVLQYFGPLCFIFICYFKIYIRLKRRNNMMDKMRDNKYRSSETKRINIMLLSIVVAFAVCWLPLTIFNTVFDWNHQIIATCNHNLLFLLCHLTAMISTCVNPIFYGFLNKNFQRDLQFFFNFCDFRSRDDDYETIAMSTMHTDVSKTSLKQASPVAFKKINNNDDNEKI
As to the kind of experiment: Fluorescence-based dose response cell-based high-throughput screening assay for agonists of NPY-Y1. [Related pubchem assays: 1697 (Screening assay (NPY-Y1 agonists).), 1359 (Screening assay (NPY-Y2 potentiators or agonists).), 1304 (Screening assay (NPY-Y1 potentiators or agonists).), 1704 (Screening assay (CNGC inhibitors).), 1791 (Summary AID.)]. It is filed as functional.

Assay [3] addresses T2, Neuropeptide Y receptor type 2 (Homo sapiens, UniProt P49146).
T2 sequence (P49146 whole entry): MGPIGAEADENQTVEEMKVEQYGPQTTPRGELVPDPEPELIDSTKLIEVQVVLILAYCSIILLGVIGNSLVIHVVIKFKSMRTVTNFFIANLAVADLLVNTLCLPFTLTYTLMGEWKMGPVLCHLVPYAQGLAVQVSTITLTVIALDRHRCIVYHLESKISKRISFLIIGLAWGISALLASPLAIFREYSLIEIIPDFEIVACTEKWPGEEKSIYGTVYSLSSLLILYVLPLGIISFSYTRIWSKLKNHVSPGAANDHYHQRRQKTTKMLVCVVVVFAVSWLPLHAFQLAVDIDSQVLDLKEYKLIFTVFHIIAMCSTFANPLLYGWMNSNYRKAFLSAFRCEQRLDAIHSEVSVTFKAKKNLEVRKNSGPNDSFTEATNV
As to the kind of experiment: Fluorescence-based counterscreen for agonists of NPY-Y1: cell-based high-throughput dose response assay for agonists of NPY-Y2. It is filed as functional.

Assay [4] deals with T3, Tyrosine-protein phosphatase non-receptor type 22 (Homo sapiens, UniProt Q9Y2R2).
T3 sequence (Q9Y2R2 whole entry): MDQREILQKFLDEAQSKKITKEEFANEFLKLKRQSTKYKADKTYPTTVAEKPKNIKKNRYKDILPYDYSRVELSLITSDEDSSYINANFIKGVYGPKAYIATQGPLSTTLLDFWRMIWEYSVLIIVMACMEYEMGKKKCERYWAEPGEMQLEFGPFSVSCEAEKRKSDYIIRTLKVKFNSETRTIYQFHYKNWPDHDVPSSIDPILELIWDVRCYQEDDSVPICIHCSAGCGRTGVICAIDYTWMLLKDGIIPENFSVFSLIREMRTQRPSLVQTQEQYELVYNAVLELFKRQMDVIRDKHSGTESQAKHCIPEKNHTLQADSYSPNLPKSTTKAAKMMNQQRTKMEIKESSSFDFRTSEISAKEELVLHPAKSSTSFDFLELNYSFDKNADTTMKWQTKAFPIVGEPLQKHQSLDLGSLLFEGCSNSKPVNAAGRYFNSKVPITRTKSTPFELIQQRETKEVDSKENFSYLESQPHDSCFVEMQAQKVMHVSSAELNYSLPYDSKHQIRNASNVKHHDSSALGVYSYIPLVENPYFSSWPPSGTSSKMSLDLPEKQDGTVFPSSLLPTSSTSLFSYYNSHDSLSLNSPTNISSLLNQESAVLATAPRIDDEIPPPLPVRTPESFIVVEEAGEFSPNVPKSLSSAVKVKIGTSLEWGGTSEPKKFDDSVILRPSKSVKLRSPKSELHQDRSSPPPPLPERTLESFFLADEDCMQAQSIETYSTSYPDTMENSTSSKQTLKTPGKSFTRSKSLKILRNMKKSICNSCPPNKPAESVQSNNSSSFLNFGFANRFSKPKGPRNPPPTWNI
The assay is described as follows: LYP (PTPN22) phosphatase inhibitor potency, SAR follow-up, biochemical, pCAP fluorogenic substrate, fluorescence, set 3 (AID 449727). The class given is functional.

Assay [5] addresses T4, Tyrosine-protein phosphatase non-receptor type 7 (Homo sapiens, UniProt P35236).
T4 sequence (P35236 whole entry): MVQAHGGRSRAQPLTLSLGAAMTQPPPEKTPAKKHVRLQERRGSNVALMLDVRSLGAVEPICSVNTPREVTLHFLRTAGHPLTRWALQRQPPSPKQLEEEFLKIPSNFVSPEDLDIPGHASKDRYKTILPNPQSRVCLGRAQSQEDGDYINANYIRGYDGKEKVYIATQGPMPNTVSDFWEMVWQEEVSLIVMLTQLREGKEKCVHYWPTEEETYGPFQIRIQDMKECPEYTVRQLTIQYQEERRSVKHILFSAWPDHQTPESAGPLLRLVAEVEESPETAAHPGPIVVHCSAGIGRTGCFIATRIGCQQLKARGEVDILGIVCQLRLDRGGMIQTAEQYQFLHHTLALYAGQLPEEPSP
The assay is described as follows: HePTP (PTPN7) phosphatase inhibitor potency, SAR follow-up, biochemical, set 2 (AID 449736). The class given is functional.

The target in assay [6] is T5, Small ubiquitin-related modifier 1 (Homo sapiens, UniProt P63165). The assay is described as follows: inhibitors of SUMO1 peptide binding, dose response, biochemical, fluorescence polarization, uHTS hits (AID 624382). It is filed as functional. Conditions: read-out: IC50_Mean. A general note: Fluorescence polarisation rises when a labelled molecule tumbles more slowly, as on binding a larger partner.

Assay [7] has as its target T4, Tyrosine-protein phosphatase non-receptor type 7. As to the kind of experiment: redox-dependent HePTP inhibition, mechanism study, biochemical, fluorescence (AID 2068). The class given is functional.
Assay [8] concerns the target T6, Dual specificity protein phosphatase 3 (Homo sapiens, UniProt P51452). As to the kind of experiment: SAR VHR1 absorbance Assay for In Vitro dose response studies. [Related pubchem assays (depositor defined):AID1654, AID1661, AID1878, AID1992, AID2004].
The target in assay [9] is T3, Tyrosine-protein phosphatase non-receptor type 22. As to the kind of experiment: SAR LYP1 Fluorescent Assay using OMFP substrate for In Vitro dose response studies - Set 3. [Related pubchem assays (depositor defined):AID1779, AID1784, AID2140, AID2686]. It is filed as functional.
The target in assay [10] is T7, Low molecular weight phosphotyrosine protein phosphatase (Homo sapiens, UniProt P24666).
T7 sequence (P24666 whole entry): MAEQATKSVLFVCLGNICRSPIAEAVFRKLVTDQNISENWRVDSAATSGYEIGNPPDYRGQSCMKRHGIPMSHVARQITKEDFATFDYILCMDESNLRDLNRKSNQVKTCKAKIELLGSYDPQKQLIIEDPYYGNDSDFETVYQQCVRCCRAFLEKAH
It is filed as functional. Conditions: read-out: IC50_Mean.

In assay [11] the target is T8, Dual specificity protein phosphatase 6 (Rattus norvegicus, UniProt Q64346).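 Also: confirmatory in vitro dose-response testing of MKP-3 inhibition; recombinant His-tagged MKP-3 made in E. coli BL21 with OMFP substrate.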
T8 sequence (Q64346 whole entry): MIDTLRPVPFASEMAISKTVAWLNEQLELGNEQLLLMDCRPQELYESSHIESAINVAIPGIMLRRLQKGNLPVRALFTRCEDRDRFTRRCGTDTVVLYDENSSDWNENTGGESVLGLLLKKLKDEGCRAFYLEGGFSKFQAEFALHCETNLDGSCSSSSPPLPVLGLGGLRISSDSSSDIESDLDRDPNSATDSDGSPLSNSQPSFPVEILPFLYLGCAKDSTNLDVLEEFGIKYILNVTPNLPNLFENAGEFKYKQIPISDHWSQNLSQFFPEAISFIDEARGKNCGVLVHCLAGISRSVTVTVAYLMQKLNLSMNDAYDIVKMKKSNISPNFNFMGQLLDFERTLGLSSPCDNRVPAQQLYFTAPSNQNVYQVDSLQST
The class given is functional.

Assay [12] has as its target T5, Small ubiquitin-related modifier 1. The assay is described as follows: inhibitors of SUMO1 partner interactions, dose response, biochemical, FRET (AID 624383). It is filed as functional. Conditions: read-out: IC50_Mean.
The target of assay [13] is Tyrosine-protein phosphatase non-receptor type 12 (Homo sapiens, UniProt Q05209). The assay is described as follows: SAR Selectivity Analysis of small molecule inhibitors of PEST using pCAP in a fluorescence assay. [Related pubchem assays (depositor defined):AID1779, AID1784, AID2135]. The class given is functional.
The target in assay [14] is T3, Tyrosine-protein phosphatase non-receptor type 22. As to the kind of experiment: LYP phosphatase inhibition for selectivity, dose response, selectivity assay for LMPTP inhibitor project, biochemical, fluorescence, LYP catalytic domain (AID 652006). The class given is functional. Conditions: read-out: IC50_Mean.
Assay [15] addresses T6, Dual specificity protein phosphatase 3. The assay is described as follows: MOA VHR1 Fluorescent secondary assay for identification of redox-state modulating compounds. [Related pubchem assays (depositor defined):AID1654, AID1661, AID1878, AID1957].
Assay [16] shares this target. The assay is described as follows: SAR VHR1 Fluorescent Assay for In Vitro dose response studies. [Related pubchem assays (depositor defined):AID1654, AID1661, AID1878, AID1992, AID2004, AID2070, AID2085]. It is filed as functional.
Assay [17] concerns the target T7, Low molecular weight phosphotyrosine protein phosphatase. The class given is functional. Conditions: read-out: IC50_Mean. The source holds these as a separate data set.
Assay [18] addresses Acyl-homoserine lactone acylase PvdQ (Pseudomonas aeruginosa (strain LESB58), UniProt Q9I194). The assay is described as follows: P. aeruginosa PvdQ acylase inhibitors, dose response, biochemical, fluorescence, plate reader and imaging, cherry-picks (AID 493231).

T6 sequence (P51452 whole entry): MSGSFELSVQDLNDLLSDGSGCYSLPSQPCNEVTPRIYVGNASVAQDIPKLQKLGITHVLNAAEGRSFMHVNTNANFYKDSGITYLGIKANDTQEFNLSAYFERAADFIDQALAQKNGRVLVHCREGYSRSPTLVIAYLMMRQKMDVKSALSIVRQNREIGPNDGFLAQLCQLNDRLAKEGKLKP
T5 sequence (P63165 whole entry): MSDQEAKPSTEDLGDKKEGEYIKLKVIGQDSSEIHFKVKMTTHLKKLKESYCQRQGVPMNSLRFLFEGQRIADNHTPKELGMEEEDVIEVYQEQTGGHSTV
Sequence of Tyrosine-protein phosphatase non-receptor type 12 (Q05209 whole entry, the tested form may be a part): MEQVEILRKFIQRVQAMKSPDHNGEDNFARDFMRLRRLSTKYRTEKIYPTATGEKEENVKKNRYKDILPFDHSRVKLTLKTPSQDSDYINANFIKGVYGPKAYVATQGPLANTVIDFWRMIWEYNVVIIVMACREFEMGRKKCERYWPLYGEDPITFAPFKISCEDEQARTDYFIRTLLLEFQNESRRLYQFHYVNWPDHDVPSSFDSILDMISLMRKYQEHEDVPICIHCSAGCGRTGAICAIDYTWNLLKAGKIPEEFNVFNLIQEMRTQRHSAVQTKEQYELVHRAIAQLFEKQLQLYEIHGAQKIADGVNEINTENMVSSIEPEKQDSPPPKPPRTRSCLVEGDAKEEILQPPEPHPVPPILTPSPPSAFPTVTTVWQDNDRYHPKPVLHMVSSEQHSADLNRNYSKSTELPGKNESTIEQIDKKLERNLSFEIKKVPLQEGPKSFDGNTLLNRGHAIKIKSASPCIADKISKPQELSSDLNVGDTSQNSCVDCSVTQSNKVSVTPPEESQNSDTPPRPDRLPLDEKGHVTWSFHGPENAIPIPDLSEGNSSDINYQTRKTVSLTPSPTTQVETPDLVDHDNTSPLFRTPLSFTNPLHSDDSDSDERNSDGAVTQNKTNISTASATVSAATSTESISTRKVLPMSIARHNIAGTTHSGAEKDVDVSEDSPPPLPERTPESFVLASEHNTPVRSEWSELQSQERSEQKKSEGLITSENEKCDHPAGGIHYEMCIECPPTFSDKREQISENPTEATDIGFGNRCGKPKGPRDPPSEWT
Sequence of Lysosomal acid glucosylceramidase (P04062 whole entry): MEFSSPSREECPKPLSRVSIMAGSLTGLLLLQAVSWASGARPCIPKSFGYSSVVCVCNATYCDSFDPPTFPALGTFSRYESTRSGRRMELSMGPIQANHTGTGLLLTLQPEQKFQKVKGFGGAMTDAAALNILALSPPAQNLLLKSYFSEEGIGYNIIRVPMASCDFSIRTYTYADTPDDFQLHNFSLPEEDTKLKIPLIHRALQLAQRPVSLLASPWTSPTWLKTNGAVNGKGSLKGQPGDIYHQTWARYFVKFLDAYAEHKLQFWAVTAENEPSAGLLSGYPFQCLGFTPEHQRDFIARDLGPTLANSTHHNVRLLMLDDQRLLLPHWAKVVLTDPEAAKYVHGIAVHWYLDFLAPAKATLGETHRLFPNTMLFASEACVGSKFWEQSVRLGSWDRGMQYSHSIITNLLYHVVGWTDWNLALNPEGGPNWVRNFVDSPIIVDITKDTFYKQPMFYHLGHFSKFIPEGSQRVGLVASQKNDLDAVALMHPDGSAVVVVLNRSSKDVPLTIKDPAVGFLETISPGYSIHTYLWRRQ
Sequence of Acyl-homoserine lactone acylase PvdQ (Q9I194 24-193 limits assumed): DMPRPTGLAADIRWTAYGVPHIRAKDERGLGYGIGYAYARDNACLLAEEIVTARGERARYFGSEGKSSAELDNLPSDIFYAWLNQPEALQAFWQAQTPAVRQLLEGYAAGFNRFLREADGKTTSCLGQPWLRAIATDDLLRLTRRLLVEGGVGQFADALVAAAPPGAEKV
Sequence of Acyl-homoserine lactone acylase PvdQ (Q9I194 217-762 limits assumed): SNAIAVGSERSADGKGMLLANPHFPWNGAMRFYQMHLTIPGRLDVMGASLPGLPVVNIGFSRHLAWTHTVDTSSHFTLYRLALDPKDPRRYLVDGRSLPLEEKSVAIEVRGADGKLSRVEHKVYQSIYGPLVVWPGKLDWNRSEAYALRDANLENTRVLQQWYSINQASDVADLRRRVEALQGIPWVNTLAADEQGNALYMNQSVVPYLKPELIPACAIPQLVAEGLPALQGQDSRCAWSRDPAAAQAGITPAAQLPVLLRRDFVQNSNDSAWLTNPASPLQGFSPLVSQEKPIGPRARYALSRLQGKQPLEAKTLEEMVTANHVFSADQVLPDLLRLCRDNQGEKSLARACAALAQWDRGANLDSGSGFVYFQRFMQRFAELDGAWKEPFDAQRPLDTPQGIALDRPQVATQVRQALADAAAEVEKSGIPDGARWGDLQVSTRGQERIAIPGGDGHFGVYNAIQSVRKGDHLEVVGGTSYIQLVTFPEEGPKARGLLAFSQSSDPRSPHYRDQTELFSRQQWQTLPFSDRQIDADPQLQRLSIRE

For orientation: EC50 means the midpoint of the concentration-response curve. Turning to `O=C(OCCN1CCCCC1)c1cc2ccccc2o1`, the EC50 in assay [1] is given as > 10 µM (not active).
Turning to `Oc1ccccc1Cn1c(-c2ccccc2O)nc2ccccc21`, the IC50 with HEK293 was 14.3 µM (not active). Moreover, the EC50 was 15.6 µM (not active) in assay [2] and 24.7 µM (not active) in assay [3].
Turning to `CCOC(=O)C1=C(C)N=c2sc(=Cc3ccc(OCC(=O)O)cc3)c(=O)n2C1c1ccc(SC)cc1` (centres undefined), the IC50 in assay [4] is 5.14 µM (active); in assay [5], 0.684 µM (active); in assay [6], > 66.6 µM (inactive); in assay [7], 0.537 µM (active); in assay [8], 3.14 µM (active); in assay [9], 5.06 µM (active). For the same molecule, the IC50 in assay [10] was 14.6 µM (active); in [11], 18.9 µM (active); in assay [12], 9.68 µM (active); in [13] it was 2.52 µM (active); in assay [14] it was 16.2 µM (active); in assay [15], 2.01 µM (active). For the same molecule, the values for the IC50 in assay [16] and in [17] were 7.7 µM (active) and 52.8 µM (inactive), respectively.
In general, AC50 refers to the concentration giving half of the maximal activity seen. For the molecule `O=C1C=C(c2ccccc2C(F)(F)F)C[C@@H](c2ccc3c(c2)OCO3)C1`, the AC50 in [18] is > 100 µM (inactive).
